From ChEMBL document CHEMBL1122110, “Use of (S)-(trifloxymethyl)oxirane in the synthesis of a chiral beta-adrenoceptor antagonist, (R)- and (S)-9-[[3-(tert-butylamino)-2-hydroxypropyl]oximino]fluorene” (J Med Chem, 1982) come the findings set out here.

Experiment [1] deals with Beta-1 adrenergic receptor (Cavia porcellus, UniProt B0FL73). Kind of experiment: Compound was tested for its Beta-1 adrenergic receptor antagonistic activity on guinea pig atria. The class given is functional. The following applies: read-out: pA2 (converted).
Sequence of Beta-1 adrenergic receptor (B0FL73 whole entry): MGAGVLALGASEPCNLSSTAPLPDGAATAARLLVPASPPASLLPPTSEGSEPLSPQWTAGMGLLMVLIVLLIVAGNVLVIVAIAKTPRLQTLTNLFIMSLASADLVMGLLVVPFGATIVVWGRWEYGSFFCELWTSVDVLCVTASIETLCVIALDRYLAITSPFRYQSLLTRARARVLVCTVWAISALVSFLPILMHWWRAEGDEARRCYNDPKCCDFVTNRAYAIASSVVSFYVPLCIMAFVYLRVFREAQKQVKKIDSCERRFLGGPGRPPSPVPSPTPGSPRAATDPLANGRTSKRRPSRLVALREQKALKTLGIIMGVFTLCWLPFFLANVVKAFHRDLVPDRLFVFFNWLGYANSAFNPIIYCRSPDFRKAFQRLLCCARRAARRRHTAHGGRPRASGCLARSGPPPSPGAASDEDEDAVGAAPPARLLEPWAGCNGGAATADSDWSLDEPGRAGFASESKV
Experiment [2] has as its target Beta-2 adrenergic receptor (Cavia porcellus, UniProt Q8K4Z4). The experiment in a line: Beta-2 adrenergic receptor antagonistic activity on guinea pig tracheal chains. The class given is functional. The following applies: read-out: pA2 (converted).
Experiment [3] concerns the target Beta-2 adrenergic receptor (Bos taurus, UniProt Q28044). Kind of experiment: Compound was tested for inhibition of [3H]dihydroalprenolol radioligand binding to Beta-2 adrenergic receptor in calf lung membranes. The class given is cell membranes.

Sequence of Beta-2 adrenergic receptor (Bos taurus, UniProt Q28044) (Q28044 whole entry): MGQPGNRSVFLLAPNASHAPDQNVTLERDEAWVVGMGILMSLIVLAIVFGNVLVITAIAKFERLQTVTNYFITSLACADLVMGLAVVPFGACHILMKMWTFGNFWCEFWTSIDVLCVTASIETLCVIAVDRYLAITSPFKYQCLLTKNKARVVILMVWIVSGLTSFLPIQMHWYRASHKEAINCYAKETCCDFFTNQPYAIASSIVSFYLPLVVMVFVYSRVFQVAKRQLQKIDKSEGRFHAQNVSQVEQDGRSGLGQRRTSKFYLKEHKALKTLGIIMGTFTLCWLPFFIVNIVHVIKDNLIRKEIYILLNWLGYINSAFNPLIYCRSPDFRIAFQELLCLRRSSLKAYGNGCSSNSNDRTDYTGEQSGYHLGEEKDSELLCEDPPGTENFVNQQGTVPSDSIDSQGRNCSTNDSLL
Sequence of Beta-2 adrenergic receptor (Cavia porcellus, UniProt Q8K4Z4) (Q8K4Z4 whole entry): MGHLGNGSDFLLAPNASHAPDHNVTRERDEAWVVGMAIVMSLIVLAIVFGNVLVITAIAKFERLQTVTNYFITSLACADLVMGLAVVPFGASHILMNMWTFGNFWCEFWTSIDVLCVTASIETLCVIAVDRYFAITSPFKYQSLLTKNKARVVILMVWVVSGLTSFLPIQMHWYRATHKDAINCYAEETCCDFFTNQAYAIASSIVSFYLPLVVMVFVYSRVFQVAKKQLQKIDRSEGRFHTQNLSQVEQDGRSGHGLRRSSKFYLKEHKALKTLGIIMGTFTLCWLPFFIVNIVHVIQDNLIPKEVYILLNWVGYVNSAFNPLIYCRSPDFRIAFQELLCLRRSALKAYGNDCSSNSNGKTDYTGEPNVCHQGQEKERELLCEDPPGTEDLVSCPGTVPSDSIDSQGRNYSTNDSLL

For `CCC(C)(C)NC[C@H](O)CON=C1c2ccccc2-c2ccccc21`, the Kb in experiment [1] was 16.6 nM; in experiment [2], 74.1 nM.

As for `CC(C)(C)NC[C@H](O)CON=C1c2ccccc2-c2ccccc21`, the IC50 (usually the concentration that gives 50% inhibition) in experiment [3] was 30.8 nM. Further, the values for the Kb in experiment [1] and in experiment [2] were 37.2 nM and 17 nM, respectively.

For `CC(C)(C)NCC(O)CON=C1c2ccccc2-c2ccccc21` (stereo unspecified), the IC50 in experiment [3] came out at 24.6 nM. Moreover, the Kb in experiment [1] was 33.9 nM; in experiment [2], 66.1 nM.

Take `Cc1ccc(OCC(O)CNC(C)C)c2c1CCC2` (stereo unspecified): the IC50 in experiment [3] was found to be 17.6 nM. Also, the Kb in experiment [1] was 97.7 nM; in experiment [2] it was 31.6 nM.

With `CC(C)(C)NC[C@@H](O)CON=C1c2ccccc2-c2ccccc21`, the IC50 in experiment [3] amounted to 20.1 nM. For the same molecule, the Kb is 13.2 nM in experiment [1] and 18.2 nM in experiment [2].

Take `CCC(C)(C)NCC(O)CON=C1c2ccccc2-c2ccccc21` (stereo unspecified): the values for the Kb in experiment [1] and in experiment [2] were 34.7 nM and 85.1 nM, respectively.
